Patent US9822147B2, “Methods of treating ophthalmic diseases using NPR-B agonists” (priority 2009, dated 2017)
Numbered stars: 1 amine (or outer) side, 2 acyl side, 3 side chain; on linkers, the order of the positions; unused ones are H or OH. Square brackets hold non-standard residues; d marks the D form. Peptide text beside a SMILES is read from it. * marks the point of attachment. Phe(3,4-Cl2) = N[C@@H](Cc1ccc(Cl)c(Cl)c1)C(=O)O; Phe(3-CF3) = N[C@@H](Cc1cccc(C(F)(F)F)c1)C(=O)O; X16 = CCN[C@@H]1C[C@@H](C(=O)[*:2])N([*:1])C1; Pro(4R-NH2) = N[C@H]1CN[C@H](C(=O)O)C1; dOrn(Me2) = CN(C)CCC[C@@H](N)C(=O)O; X2 = O=C([C@H]1CCCN([*:1])C1)[*:2]; Hyp = O=C(O)[C@@H]1C[C@@H](O)CN1; NHcycloheptyl = C1CCCC(N*)CC1; NMeL = CN[C@@H](CC(C)C)C(=O)O; dNle = CCCC[C@@H](N)C(=O)O; Octanoyl = CCCCCCCC(=O)*; Api = NC1(C(=O)O)CCNCC1

Each molecule was assayed against T1, NPR-B (Homo sapiens, UniProt P20594) (assay: NPR-B induced production of cyclic GMP in human glaucoma trabecular meshwork cells (GTM-3)). Conditions: group by EC50 and Emax (CNP = 100%); Table 4; read-out: Activity (group), NPR-B activation assayed with GTM-3 cells.
T1 construct: a functional assay using endogenously NPR-B expressing GTM-3 cells; endogenous in cells; host or cells: GTM-3 (human glaucoma trabecular meshwork cells)
T1 sequence (P20594 23-1047): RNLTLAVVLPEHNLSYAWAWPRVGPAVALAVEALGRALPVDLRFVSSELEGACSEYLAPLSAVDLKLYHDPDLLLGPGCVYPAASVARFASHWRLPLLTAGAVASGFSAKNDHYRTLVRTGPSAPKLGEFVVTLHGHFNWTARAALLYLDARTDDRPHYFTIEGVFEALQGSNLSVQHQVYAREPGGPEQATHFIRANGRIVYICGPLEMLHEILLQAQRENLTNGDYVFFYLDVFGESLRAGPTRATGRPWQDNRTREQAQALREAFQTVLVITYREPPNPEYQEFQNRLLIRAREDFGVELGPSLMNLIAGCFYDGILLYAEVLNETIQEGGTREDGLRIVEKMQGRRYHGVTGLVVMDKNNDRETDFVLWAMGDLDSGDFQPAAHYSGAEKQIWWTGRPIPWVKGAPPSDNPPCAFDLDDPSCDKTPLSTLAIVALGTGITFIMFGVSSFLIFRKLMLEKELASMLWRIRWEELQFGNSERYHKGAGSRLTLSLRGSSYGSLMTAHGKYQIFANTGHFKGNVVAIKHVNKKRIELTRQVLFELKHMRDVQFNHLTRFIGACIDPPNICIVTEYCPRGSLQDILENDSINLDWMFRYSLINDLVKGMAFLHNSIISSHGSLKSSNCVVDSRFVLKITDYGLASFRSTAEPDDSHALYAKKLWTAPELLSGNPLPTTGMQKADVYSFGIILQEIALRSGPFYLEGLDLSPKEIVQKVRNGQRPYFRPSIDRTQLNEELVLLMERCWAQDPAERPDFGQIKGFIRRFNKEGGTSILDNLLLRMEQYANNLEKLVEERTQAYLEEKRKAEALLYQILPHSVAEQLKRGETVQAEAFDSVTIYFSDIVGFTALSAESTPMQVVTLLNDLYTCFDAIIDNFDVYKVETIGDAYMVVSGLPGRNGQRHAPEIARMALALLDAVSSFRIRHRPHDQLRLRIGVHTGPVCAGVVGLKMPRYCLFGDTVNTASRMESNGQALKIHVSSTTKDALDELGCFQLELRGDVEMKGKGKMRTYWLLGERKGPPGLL
Type: cell-based

Compound | EC50 [nM]
CCCCCCCC(=O)N1CCC[C@H](C(=O)N[C@@H](Cc2cccc(C(F)(F)F)c2)C(=O)N[C@H](CC(C)C)C(=O)N[C@@H](CC(C)C)C(=O)N2C[C@H](O)C[C@H]2C(=O)N(C)[C@@H](CC(C)C)C(=O)N[C@@H](CC(=O)O)C(=O)N[C@@H](CCCNC(=N)N)C(=O)N[C@H](C(N)=O)[C@@H](C)CC)C1 [JAL-1621, Occ-Sni-Mtf-leu-Leu-Hyp-Nml-Asp-Arg-Ile-NH2] (Octanoyl-[X2][Phe(3-CF3)][dL]L[Hyp][NMeL]DRI-NH2) | < 1000
CCCCCCCC(=O)N1CCC[C@H](C(=O)N[C@@H](Cc2ccccc2)C(=O)N[C@H](CC(C)C)C(=O)N[C@@H](CC(C)C)C(=O)N2C[C@H](O)C[C@H]2C(=O)N[C@H](C(=O)N[C@@H](CC(=O)O)C(=O)N[C@@H](CCCNC(=N)N)C(=O)N[C@H](C(N)=O)[C@@H](C)CC)[C@@H](C)CC)C1 [JAL-1625, Occ-Sni-Phe-leu-Leu-Hyp-Ile-Asp-Arg-Ile-NH2] (HELM PEPTIDE1{[CCCCCCCC(=O)[*:2]].[O=C([C@H]1CCCN([*:1])C1)[*:2]].F.[dL].L.[Hyp].I.D.R.I.[am]}$$$$V2.0) | < 1000
CCCCCCCC(=O)N1CCC[C@H](C(=O)N[C@@H](Cc2ccc(Cl)c(Cl)c2)C(=O)N[C@H](CC(C)C)C(=O)N[C@@H](CC(C)C)C(=O)N2C[C@H](O)C[C@H]2C(=O)N(C)[C@@H](CC(C)C)C(=O)N[C@@H](CC(=O)O)C(=O)N[C@@H](CCCNC(=N)N)C(=O)N[C@H](C(N)=O)[C@@H](C)CC)C1 [JAL-1496, Occ-Sni-Eaa-leu-Leu-Hyp-Nml-Asp-Arg-Ile-NH2] (Octanoyl-[X2][Phe(3,4-Cl2)][dL]L[Hyp][NMeL]DRI-NH2) | < 1000
CC[C@H](C)[C@H](NC(=O)[C@H](CCCNC(=N)N)NC(=O)[C@H](CC(=O)O)NC(=O)[C@H](CC(C)C)N(C)C(=O)[C@@H]1C[C@@H](O)CN1C(=O)[C@H](CC(C)C)NC(=O)[C@@H](CC(C)C)NC(=O)[C@H](Cc1ccccc1)NC(=O)[C@H]1CCCN(C(=O)CCCc2ccccc2)C1)C(N)=O [JAL-1605, 1319-Sni-Phe-leu-Leu-Hyp-Nml-Asp-Arg-Ile-NH2] (HELM PEPTIDE1{[O=C(CCCc1ccccc1)[*:2]].[O=C([C@H]1CCCN([*:1])C1)[*:2]].F.[dL].L.[Hyp].[meL].D.R.I.[am]}$$$$V2.0) | < 1000
CCCCCCCC(=O)N[C@H](C)C(=O)N[C@@H](Cc1ccccc1)C(=O)NC1(C(=O)N[C@@H](CC(C)C)C(=O)N2C[C@H](N)C[C@H]2C(=O)N(C)[C@@H](CC(C)C)C(=O)N[C@@H](CC(=O)O)C(=O)N2CCC[C@H]2C(=O)N[C@H](C(N)=O)[C@@H](C)CC)CCNCC1 [JAL-1452, Occ-ala-Phe-Apc-Leu-Tap-Nml-Asp-Pro-Ile-NH2] (Octanoyl-[dA]F[Api]L[Pro(4R-NH2)][NMeL]DPI-NH2) | < 1000
CCCCCCCC(=O)N[C@H](C)C(=O)N(C)[C@@H](Cc1ccccc1)C(=O)N[C@H](CC(C)C)C(=O)N[C@@H](CC(C)C)C(=O)N1C[C@H](O)C[C@H]1C(=O)N[C@@H](CC(C)C)C(=O)N[C@@H](CC(=O)O)C(=O)N[C@@H](CCCNC(=N)N)C(=O)N[C@H](C(N)=O)[C@@H](C)CC [JAL-1052, Occ-ala-Nmf-leu-Leu-Hyp-Leu-Asp-Arg-Ile-NH2] (HELM PEPTIDE1{[CCCCCCCC(=O)[*:2]].[dA].[meF].[dL].L.[Hyp].L.D.R.I.[am]}$$$$V2.0) | < 1000
CCCCCCCC(=O)N1CCC[C@H](C(=O)N[C@@H](Cc2ccccc2)C(=O)N[C@H](CC(C)C)C(=O)N[C@@H](CC(C)C)C(=O)N2C[C@H](NCC)C[C@H]2C(=O)N(C)[C@@H](CC(C)C)C(=O)N[C@@H](CC(=O)O)C(=O)N[C@@H](CCCNC(=N)N)C(=O)N[C@H](C(N)=O)[C@@H](C)CC)C1 [JAL-1349, Occ-Sni-Phe-leu-Leu-Tap(Et)-Nml-Asp-Arg-Ile-NH2] (Octanoyl-[X2]F[dL]L[X16][NMeL]DRI-NH2) | < 1000
CCCCCCCCN1CCC[C@H](C(=O)N[C@@H](Cc2ccccc2)C(=O)N[C@H](CCCNC(=N)N)C(=O)N[C@@H](CC(C)C)C(=O)N2C[C@H](O)C[C@H]2C(=O)N(C)[C@@H](CC(C)C)C(=O)N[C@@H](CC(=O)O)C(=O)N[C@@H](CCCNC(=N)N)C(=O)N[C@H](C(N)=O)[C@@H](C)CC)C1 [JAL-1297, Oct-Sni-Phe-arg-Leu-Hyp-Nml-Asp-Arg-Ile-NH2] (HELM PEPTIDE1{[CCCCCCCCN1CCC[C@H](C(=O)[*:2])C1].F.[dR].L.[Hyp].[meL].D.R.I.[am]}$$$$V2.0) | < 1000
CCCCCCCC(=O)N1CCC[C@H](C(=O)N[C@@H](Cc2ccccc2)C(=O)N[C@H](CCCN(C)C)C(=O)N[C@@H](CC(C)C)C(=O)N2C[C@H](O)C[C@H]2C(=O)N(C)[C@@H](CC(C)C)C(=O)N[C@@H](CC(=O)O)C(=O)N[C@@H](CCCNC(=N)N)C(=O)NC2CCCCCC2)C1 [JAL-1776, Occ-Sni-Phe-orn(Me2)-Leu-Hyp-Nml-Asp-Arg-Che] (Octanoyl-[X2]F[dOrn(Me2)]L[Hyp][NMeL]DR-NHcycloheptyl) | < 1000
CCCCCCCC(=O)N1CCC[C@H](C(=O)N[C@@H](Cc2ccccc2)C(=O)N[C@H](CC(C)C)C(=O)N[C@@H](CC(C)C)C(=O)N2C[C@H](N)C[C@H]2C(=O)N(C)[C@@H](CC(C)C)C(=O)N[C@@H](CC(=O)O)C(=O)N[C@@H](CCCNC(=N)N)C(=O)NC2CCCCCC2)C1 [JAL-1682, Occ-Sni-Phe-leu-Leu-Tap-Nml-Asp-Arg-Che] (Octanoyl-[X2]F[dL]L[Pro(4R-NH2)][NMeL]DR-NHcycloheptyl) | < 1000
CCCCCCCC(=O)N1CCC[C@H](C(=O)N[C@@H](Cc2ccccc2)C(=O)N[C@H](CCCNC(=N)N)C(=O)N[C@@H](CC(C)C)C(=O)N2C[C@H](O)C[C@H]2C(=O)N(C)[C@@H](CC(C)C)C(=O)N[C@@H](CC(=O)O)C(=O)N[C@@H](CCCNC(=N)N)C(=O)N[C@H](C(N)=O)[C@@H](C)CC)C1 [JAL-1255, Occ-Sni-Phe-arg-Leu-Hyp-Nml-Asp-Arg-Ile-NH2] (HELM PEPTIDE1{[CCCCCCCC(=O)[*:2]].[O=C([C@H]1CCCN([*:1])C1)[*:2]].F.[dR].L.[Hyp].[meL].D.R.I.[am]}$$$$V2.0) | < 1000
CCCCCCCC(=O)N1CCC[C@H](C(=O)N[C@@H](Cc2ccccc2)C(=O)N[C@H](CCCC)C(=O)N[C@@H](CC(C)C)C(=O)N2C[C@H](O)C[C@H]2C(=O)N[C@@H](CC(C)C)C(=O)N[C@@H](CC(=O)O)C(=O)N[C@@H](CCCNC(=N)N)C(=O)N[C@H](C(N)=O)[C@@H](C)CC)C1 [JAL-1024, Occ-Sni-Phe-nle-Leu-Hyp-Leu-Asp-Arg-Ile-NH2] (Octanoyl-[X2]F[dNle]L[Hyp]LDRI-NH2) | < 1000
CCCCCCCC(=O)N1CCC[C@@H]1C(=O)N[C@@H](Cc1ccccc1)C(=O)N[C@H](CC(C)C)C(=O)N[C@@H](CC(C)C)C(=O)N1C[C@H](O)C[C@H]1C(=O)N[C@@H](CC(C)C)C(=O)N[C@@H](CC(=O)O)C(=O)N[C@@H](CCCNC(=N)N)C(=O)N[C@H](C(N)=O)[C@@H](C)CC [JAL-1053, Occ-pro-Phe-leu-Leu-Hyp-Leu-Asp-Arg-Ile-NH2] (HELM PEPTIDE1{[CCCCCCCC(=O)[*:2]].[dP].F.[dL].L.[Hyp].L.D.R.I.[am]}$$$$V2.0) | < 1000
CCCCCCCC(=O)N[C@H](C)C(=O)N[C@@H](Cc1ccccc1)C(=O)N[C@H](CCCNC(=N)N)C(=O)N[C@@H](CC(C)C)C(=O)N1C[C@H](O)C[C@H]1C(=O)N[C@@H](CC(C)(C)C)C(=O)N[C@@H](CC(=O)O)C(=O)N[C@@H](CCCNC(=N)N)C(=O)N[C@H](C(N)=O)[C@@H](C)CC [JAL-1225, Occ-ala-Phe-arg-Leu-Hyp-Npg-Asp-Arg-Ile-NH2] (HELM PEPTIDE1{[CCCCCCCC(=O)[*:2]].[dA].F.[dR].L.[Hyp].[CC(C)(C)C[C@H](N[*:1])C(=O)[*:2]].D.R.I.[am]}$$$$V2.0) | < 1000
CCCCCCCC(=O)N1CCC[C@H](C(=O)N[C@@H](Cc2ccccc2)C(=O)N[C@H](CC(C)C)C(=O)N[C@@H](CC(C)C)C(=O)N2C[C@H](N)C[C@H]2C(=O)N(C)[C@@H](CC(C)C)C(=O)N[C@H](C(=O)N[C@@H](CCCNC(=N)N)C(=O)N[C@H](C(N)=O)[C@@H](C)CC)C(C)C)C1 [JAL-1401, Occ-Sni-Phe-leu-Leu-Tap-Nml-Val-Arg-Ile-NH2] (Octanoyl-[X2]F[dL]L[Pro(4R-NH2)][NMeL]VRI-NH2) | < 1000
CCCCCCCC(=O)N[C@H](C)C(=O)N[C@@H](Cc1ccccc1)C(=O)N[C@H](CC(C)C)C(=O)N[C@@H](CC(C)C)C(=O)N1C[C@H](O)C[C@H]1C(=O)N[C@@H](CN(C)C)C(=O)N[C@@H](CC(=O)O)C(=O)N[C@@H](CCCNC(=N)N)C(=O)N[C@H](C(N)=O)[C@@H](C)CC [JAL-1367, Occ-ala-Phe-leu-Leu-Hyp-Dap(Me2)-Asp-Arg-Ile-NH2] (HELM PEPTIDE1{[CCCCCCCC(=O)[*:2]].[dA].F.[dL].L.[Hyp].[CN(C)C[C@H](N[*:1])C(=O)[*:2]].D.R.I.[am]}$$$$V2.0) | < 1000
